This is an account of results in patent publication US20190209548A1, “LINKED DIARYL COMPOUNDS WITH ANTICANCER PROPERTIES AND METHODS OF USING THE SAME” (University of Maryland, College Park, priority 2014, published 2019).

Where “and” joins values, the source holds several entries; their conditions need not be identical. Identical values can stand only once. Like-named read-outs stand apart in the source and are kept apart here.

One assay concerns c-kit1. As to the kind of experiment: 1H-NMR of c-kit1 with ligand. The format is binding. Conditions: ligand 150 μM, DNA 300 μM. Here is the method: (§1) NMR measurements for DNA binding of triazene ligands. The procedure was followed as described previously. The ligand concentration was 150 μM, and that of the DNA (c-kit1 or 8 bp AT) was […]. The buffer used was 10 mM potassium phosphate (pH 7.5) containing 137 mM NaCl, 1 mM EDTA, and also contained 10% D2O. The sample was initially heated up to 95° C. for 5 min without the ligand and then cooled down to room temperature in 15 min. Subsequently, the sample was incubated at 4° C. for ˜12 h without the ligand (for G-quadruplex formation). Then, the ligand was added and incubated for 2 h before the NMR measurement (25° C.).
(§2) NMR of DNA/DNA analogue complexes. NMR of spectra (c-kit1 or 8 bp A T) in absence or presence of ligands were obtained following precedent. The sample solution containing c-kit1 (300 μM), D2O (10%, v/v), NaCl (137 mM), EDTA (1 mM) and potassium phosphate buffer (10 mM, pH 7.5) was heated up to 95° C. for 5 min, then cooled down to room temperature, and subsequently incubated for another 12 hours at 4° C. The DMZ analogue (150 μM) was then added and incubated for 2 hours at 4° C. The ^1H NMR spectra were recorded at 25° C., using NaOAc as an internal standard (NaOAc was in a sealed capillary tube that was inserted in the NMR tube). The ^1H NMR spectra was recorded on Bruker Avance III HD 800 MHz spectrometer with a CPQCI cryoprobe.

The test system of another assay is 8 bp AT. As to the kind of experiment: 1H-NMR of duplex DNA with ligand. The format is binding. Conditions: ligand 150 μM, DNA 300 μM. Here is the method:
as §1, §2

For the next assay, the system named is F21T. As to the kind of experiment: FRET melting assay, F21T. The format is binding. Conditions: dual-labeled DNA 0.2 μM, DMZ analogues 1 μM, potassium cacodylate 60 mM pH 7.2. Here is the method:
(§3) Fluorescence resonance energy transfer (FRET) assay to determine Tm in absence and presence of ligands. Dual-labelled DNA was diluted from stock (50 μM) to 400 nM in 60 mM potassium cacodylate buffer (pH 7.2) and then annealed by heating at 85° C. for 10 min followed by cooling to room temperature in the heating block. Compounds were diluted from stock (20 mM in DMSO) to 2 μM in 60 mM cacodylate buffer (pH 7.2). 25 μL annealed DNA was added to 96-well plate followed by 25 μL diluted compounds. The sequences of labelled oligonucleotides were as follows: F21T 21-mer (5′-FAM-GGGTTAGGGTTAGGGTTAGGG-TAMRA-3′) (SEQ ID NO:11), c-kit2 26-mer (5′-FAM-CCCGGGCGGGCGCGAGGGAGGGGAGG-TAMRA-3′) (SEQ ID NO:12), k-RAS21R 21-mer (5′-FAM-AGGGCGGTGTGGGAAGAGGGA-TAMRA-3′) (SEQ ID NO:13), c-MYC 22-mer (5′-FAM-TGAGGGTGGGTAGGGTGGGTAA-TAMRA-3′) (SEQ ID NO:14) and duplex 26-mer (5′-FAM-TATAGCTATATTTTTTTATAGCTATA-TAMRA-3′) (SEQ ID NO: 15). Measurements were made in triplicate by using a LightCycler 480 System RT-PCR machine (Roche) and average values were reported. Fluorescence readings were made with excitation at 450-495 nm and detection at 515-545 nm, taken at intervals of 1.2° C./min in the range 25° C. to 95° C.

In another assay the test system is c-MYC. As to the kind of experiment: FRET melting assay, c-MYC. The format is binding. The conditions noted are these: dual-labeled DNA 0.2 μM, DMZ analogues 1 μM, potassium cacodylate 60 mM pH 7.2. Here is the method:
as §3

The test system of a further assay is c-kit2. As to the kind of experiment: FRET melting assay, c-kit2. The format is binding. The conditions noted are these: dual-labeled DNA 0.2 μM, DMZ analogues 1 μM, potassium cacodylate 60 mM pH 7.2. Here is the method: as §3
The next assay relates to k-RAS21R. As to the kind of experiment: FRET melting assay, k-RAS21R. Conditions: dual-labeled DNA 0.2 μM, DMZ analogues 1 μM, potassium cacodylate 60 mM pH 7.2. The format is binding. Here is the method: as §3
A further assay has as its system OVCAR-3. As to the kind of experiment: WST-1 IC50 determination, OVCAR-3. Conditions: 72 hours, WST-1; for IC50: read-out: Anticancer activity IC50 ± SD, OVCAR-3. The format is cell-based, human. Background: Tetrazolium dyes change colour on reduction, which living cells bring about.
Another assay relates to PC-3. As to the kind of experiment: WST-1 IC50 determination, PC-3. The format is cell-based, human. The conditions noted are these: 72 hours, WST-1; for IC50: read-out: Anticancer activity IC50 ± SD, PC-3.
Another assay relates to MDA-MB-231. As to the kind of experiment: WST-1 IC50 determination, MDA-MB-231. The format is cell-based, human. The conditions noted are these: 72 hours, WST-1; for IC50: read-out: Anticancer activity IC50 ± SD, MDA-MB-231.
For the next assay, the system named is duplex. As to the kind of experiment: FRET melting assay, duplex DNA. The format is binding. The conditions noted are these: dual-labeled DNA 0.2 μM, DMZ analogues 1 μM, potassium cacodylate 60 mM pH 7.2. Here is the method:
as §3

The subject of the next assay is c-MYC Pu27. As to the kind of experiment: PCR stop assay, Pu27 template. The format is biochemical. Here is the method:
(§4) PCR Stop Assay. This assay was performed by modifying a previously published protocol.
(§5) To the PCR reaction mixture (25 μL), 1×PCR buffer (New England Biolabs), 5 μM Pu27 and Pu27rev oligomers, various concentrations of ligands (DMZ, TMPyP4, DMZ1, DMZ9 and DMZ13) were added and incubated at 4° C. for 6 h. After that, 1 mM dNTPs, 5 units of Taq DNA polymerase (New England Biolabs) were added and PCR reactions were performed in a thermocycler, with the following conditions: 94° C. for 3 min, followed by 20 repeated cycles each having 94° C. for 30 s, 58° C. for 30 s, and 72° C. for 30 s. After PCR, amplified products were analyzed on 12% polyacrylamide gel with 1×TBE and SYBR Gold stained. This assay was also performed under the same conditions with Pu27-13,14 and Pu27rev.

The next assay has as its system Pu27-13,14. As to the kind of experiment: PCR stop assay, mutated control template. The format is biochemical. Here is the method: as §4, §5

Turning to `N=C(N)c1ccc(NN=Nc2ccccc2)cc1` [DMZ1], the “change of c-kit1 imino proton NMR spectrum” value with c-kit1 is on record as “direct binding”. In the assay on 8 bp AT, the “change of duplex DNA imino proton NMR spectrum” value is recorded as “only DMZ (but not Triazene-1) showed considerable changes”. Moreover, the “ΔTm F21T” value in the assay on F21T came out at 4.20 ± 0.00 °C. Besides, the “ΔTm c-MYC” value in the assay on c-MYC is 7.87 ± 0.53 °C. The “ΔTm c-kit2” value with c-kit2 amounted to 6.40 ± 0.26 °C. For the same compound, the “ΔTm k-RAS21R” value in the assay on k-RAS21R was found to be 5.47 ± 0.93 °C. In the assay on OVCAR-3, the “Anticancer activity IC50 ± SD, OVCAR-3” value is “NE (NE means not effective. Cell viability was the same or greater than 75% of the DMSO control at 20 μM compound concentration.)”. Also, the “Anticancer activity IC50 ± SD, PC-3” value in the assay with PC-3 was “NE (NE means not effective. Cell viability was the same or greater than 75% of the DMSO control at 20 μM compound concentration.)”. Moreover, the “Anticancer activity IC50 ± SD, MDA-MB-231” value with MDA-MB-231 is “NE (NE means not effective. Cell viability was the same or greater than 75% of the DMSO control at 20 μM compound concentration.)”.
A word on the IC50: it is the concentration that gives 50% inhibition. Take `N=C(N)c1ccc(/N=N/Nc2ccc(C(=N)N)cc2)cc1` [DMZ, Diminazene aceturate, reference compound]: the “change of c-kit1 imino proton NMR spectrum” value in the assay on c-kit1 is “direct binding”. The “change of duplex DNA imino proton NMR spectrum” value in the assay on 8 bp AT is given as “considerable changes in the imino region”. The “ΔTm F21T” value in the assay with F21T was 10.05 ± 0.52 °C. Besides, the “ΔTm c-MYC” value in the assay with c-MYC was 12.97 ± 0.26 °C. In addition, the “ΔTm c-kit2” value in the assay on c-kit2 came out at 11.70 ± 0.26 °C. In addition, the “ΔTm k-RAS21R” value in the assay with k-RAS21R is 18.3 °C and 18.27 ± 0.52 °C. For the same compound, in the assay on duplex, the ΔTm duplex stood at 6.4 °C. The IC50 in the assay on OVCAR-3 (Homo sapiens, OVCAR-3) is greater than 25 µM. Moreover, the “Anticancer activity IC50 ± SD, PC-3” value in the assay with PC-3 is listed as “NE (NE means not effective. Cell viability was the same or greater than 75% of the DMSO control at 20 μM compound concentration.)”. Also, the “Anticancer activity IC50 ± SD, MDA-MB-231” value with MDA-MB-231 was “NE (NE means not effective. Cell viability was the same or greater than 75% of the DMSO control at 20 μM compound concentration.)”. The “polymerization/extension of oligomers Pu27 and Pu27rev” value (from here on “polymerization/extension”) in the assay on c-MYC Pu27 (25 μM compound) is on record as “showed inhibition”. Also, the “PCR product with non-G-quadruplex template” value in the assay with Pu27-13,14 (25 μM compound) is “amplified PCR product was observed”.
For the compound `N=C(N)c1ccc(/N=N/Nc2ccccc2C#Cc2ccc(F)cc2)cc1` [DMZ13], the “change of c-kit1 imino proton NMR spectrum” value with c-kit1 was “changes in peak positions and shapes”. Moreover, in the assay with 8 bp AT, the “change of duplex DNA imino proton NMR spectrum” value was “no change was observed”. Also, the “ΔTm F21T” value in the assay on F21T worked out at 4.20 ± 0.00 °C. The “ΔTm c-MYC” value in the assay with c-MYC was 7.15 ± 0.00 °C. For the same compound, the “ΔTm c-kit2” value with c-kit2 amounted to 5.12 ± 0.26 °C. Moreover, in the assay with k-RAS21R, the “ΔTm k-RAS21R” value worked out at 2.01 ± 0.00 °C. The ΔTm duplex result with duplex is given as “NE (NE means not effective binding (ΔTm < 1° C.))”. Also, the IC50 with OVCAR-3 was found to be 9.5 ± 2.2 µM; with PC-3, 7.4 ± 0.2 µM; in the assay with MDA-MB-231 it was 6.2 ± 1 µM. The “polymerization/extension” value in the assay on c-MYC Pu27 (100 μM compound) was “completely inhibited”. In the assay with Pu27-13,14 (100 μM compound), the “PCR product with non-G-quadruplex template” value is listed as “amplified PCR product was observed”.
On to `N=C(N)c1ccc(N=NNc2cccc(C#Cc3ccc(F)cc3)c2)cc1` [DMZ9], for which, in the assay on c-kit1, the “change of c-kit1 imino proton NMR spectrum” value was “changes in peak positions and shapes”. The “change of duplex DNA imino proton NMR spectrum” value in the assay with 8 bp AT is on record as “no change was observed”. The “ΔTm F21T” value with F21T was found to be 4.20 ± 0.00 °C. The “ΔTm c-MYC” value with c-MYC was determined as 8.22 ± 0.45 °C. The “ΔTm c-kit2” value in the assay on c-kit2 stood at 5.67 ± 0.26 °C. The “ΔTm k-RAS21R” value in the assay on k-RAS21R is 6.58 ± 1.29 °C. The ΔTm duplex result in the assay on duplex is given as “NE (NE means not effective binding (ΔTm < 1° C.))”. The IC50 in the assay on OVCAR-3 worked out at 5 ± 0.1 µM; in the assay with PC-3 it was 5.3 ± 1.6 µM; in the assay on MDA-MB-231 it was 5.5 ± 0.1 µM. Besides, in the assay on c-MYC Pu27 (100 μM compound), the “polymerization/extension” value is given as “completely inhibited”. In addition, the “PCR product with non-G-quadruplex template” value in the assay on Pu27-13,14 (100 μM compound) is listed as “amplified PCR product was observed”.
